# Assay results as given in patent EP0106793A1, “7-Alpha-alkyl-17-alpha-pregn-4-ene-21,17-carbolactones and -21-carboxylic acid salts and procedures for manufacturing them and pharmaceutical preparations containing them” (SCHERING AKTIENGESELLSCHAFT, priority 1982, dated 1984).
# System: aldosterone
# Assay: antialdosterone effect, experimental model by Hollmann
# Type: in vivo
# Details: relative to spironolactone = 1
# Experimental: The antialdosterone effect was determined and measured in an experimental model by Hallmann (G. Hollmann et al, Tubular Effects and Renal Elimination of Spirono- lactones, Naunyn-Schmiedebergs Arch. Exp. Path. Pharmak. 247 (1964), p 419; P. Marx, Renal Effects of d-aldosterone and Its Antagonist Spironolactone, Diss. Med. Fak. FU Berlin, 1966 whose disclosure is incorporated by references herein).
smiles,measurement,value
CC(=O)S[C@@H]1CC2=CC(=O)CC[C@]2(C)[C@H]2CC[C@@]3(C)[C@@H](CC[C@@]34CCC(=O)O4)[C@H]12 [spironolactone],relative values of the degree of antialdosterone effect,1
